Values of other authors, collected in US20050009919A1, “Treating cachexia and excessive catabolism with (-)-hydroxycitric acid” (priority 2003, published 2005).

Compound	Appetite suppression in clinical trials (Heymsfield 1998, Mattes 2000)	Weight change in clinical trials (Heymsfield 1998, Mattes 2000)	Anorectic results in clinical trials (1.2 grams to 3 grams of HCA per day, divided doses before meals)
O=C(O)CC(O)(C(=O)O)C(O)C(=O)O (single isomer, unassigned; (-)) [HCA, (−)-Hydroxycitric acid]	failed to produce appetite suppression	not-statistically-significant trends toward weight elevation	
calcium (−)-hydroxycitrate [reference compound]			failed to produce anorectic results
